Experimental data reported in PubChem BioAssay (NCI).
Where “and” joins values, the source holds several entries; their conditions need not be identical. Identical values can stand only once.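 A five-concentration, 48-hour dose response in 96-well plates underlies each endpoint, interpolated linearly between surrounding concentrations. GI50 is the concentration that inhibits growth by half. At the TGI there is no net growth.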

Key:
Assay in all cases: NCI tumour cell line growth inhibition, 48 h
MDA-N = tested on: MDA-N
HOP-18 NSCLC = tested on: HOP-18 NSCLC
LXFL 529 NSCLC = tested on: LXFL 529 NSCLC
KM20L2 colon = tested on: KM20L2 colon
SNB-78 CNS = tested on: SNB-78 CNS
DMS 273 small cell lung = tested on: DMS 273 small cell lung
XF 498 CNS = tested on: XF 498 CNS
M19-MEL melanoma = tested on: M19-MEL melanoma
RXF-631 renal = tested on: RXF-631 renal

`COc1ccc(C(=O)C(CC2C(=O)CC(C)(C)C(C(=O)C(=O)Nc3c(C)cccc3C)C2=O)c2ccc(OC)cc2)cc1` (stereo not drawn) gave a TGI (MDA-N) greater than 100 µM.
`CCC[CH2][Ge]([CH2]CCC)([CH2]CCC)[O]C(=O)C(OC(C)=O)c1ccccc1` (stereo not drawn) gave a GI50 (HOP-18 NSCLC) of 16.2 µM, a TGI (HOP-18 NSCLC) of 43.8 µM and a GI50 (LXFL 529 NSCLC) of 1310 nM. It also gave a TGI (LXFL 529 NSCLC) of 21 µM, a GI50 (KM20L2 colon) of 652 nM and a TGI (KM20L2 colon) of 15.2 µM. For the same compound, the GI50 (SNB-78 CNS) was 2990 nM, the TGI (SNB-78 CNS) was 24.7 µM and the GI50 (DMS 273 small cell lung) was 5.84 µM. It also gave a TGI (DMS 273 small cell lung) greater than 37 µM, a GI50 (XF 498 CNS) of 2570 nM and a TGI (XF 498 CNS) of 15.4 µM. The GI50 (M19-MEL melanoma) was 5.13 µM and the TGI (M19-MEL melanoma) was 20.3 µM.
For `COc1ccc(OC)c(-c2cc(C(=O)O)c3cc4ccccc4cc3n2)c1`, the TGI (MDA-N) was greater than 100 µM.
For `CC1OC(n2cc(I)c(=O)[nH]c2=O)C=CC1=O` (stereo not drawn), the TGI (HOP-18 NSCLC) was 30.3 µM, the TGI (LXFL 529 NSCLC) was 22.7 µM and the TGI (KM20L2 colon) was 31 µM. For the same compound, the TGI (SNB-78 CNS) was 31.9 µM, the TGI (DMS 273 small cell lung) was 31.3 µM and the TGI (XF 498 CNS) was 33.3 µM. The TGI (M19-MEL melanoma) was 30.6 µM.
In the case of `N#CC(C#N)=Cc1ccc(Oc2ccccc2)cc1`, the TGI (RXF-631 renal) is reported as greater than 100 µM, the TGI (HOP-18 NSCLC) is reported as 89.8 µM and the TGI (LXFL 529 NSCLC) is reported as 56.7 µM. For the same compound, the TGI (KM20L2 colon) was greater than 100 µM, the TGI (SNB-78 CNS) was greater than 90.8 µM and the TGI (DMS 273 small cell lung) was 37 µM. It also gave a TGI (XF 498 CNS) greater than 100 µM and a TGI (M19-MEL melanoma) greater than 64.8 µM.
`O=[N+]([O-])c1cc([N+](=O)[O-])c(C(Cl)C(Cl)c2ccccc2)cc1C(Cl)C(Cl)c1ccccc1` (stereo not drawn) was tested, and the TGI (RXF-631 renal) was greater than 21.1 µM, the TGI (HOP-18 NSCLC) was 3.53 µM and the TGI (LXFL 529 NSCLC) was 2.87 µM. It also gave a TGI (KM20L2 colon) of 4.22 µM, a TGI (SNB-78 CNS) of 9.72 µM and a TGI (DMS 273 small cell lung) of 4.08 µM. The TGI (XF 498 CNS) was 3.55 µM and the TGI (M19-MEL melanoma) was 3.62 µM.
In the case of `COC(=O)C(C(=O)C(=O)Nc1ccc([N+](=O)[O-])cc1)c1nc2cc(C)c(C)cc2[nH]c1=O` (stereo not drawn), the TGI (HOP-18 NSCLC) is reported as greater than 100 µM, the TGI (LXFL 529 NSCLC) is reported as greater than 100 µM and the TGI (KM20L2 colon) is reported as greater than 100 µM. It also gave a TGI (SNB-78 CNS) greater than 100 µM, a TGI (XF 498 CNS) greater than 100 µM and a TGI (M19-MEL melanoma) greater than 100 µM.
`COC(=O)C1=C(C)N(NC(=O)c2cccc(Cl)c2)C(C)(O)C12CCOC2=O` (stereo not drawn) gave a TGI (RXF-631 renal) greater than 100 µM, a TGI (LXFL 529 NSCLC) greater than 100 µM and a TGI (KM20L2 colon) greater than 100 µM. For the same compound, the TGI (SNB-78 CNS) was greater than 100 µM, the TGI (DMS 273 small cell lung) was greater than 100 µM and the TGI (XF 498 CNS) was greater than 100 µM. It also gave a TGI (M19-MEL melanoma) greater than 100 µM.
With `CCOc1ccc(N=Nc2c(-c3ccccc3)nn(C(=O)CC(=O)Nc3cccc(C)c3)c2-c2ccccc2)cc1` the TGI (RXF-631 renal) was greater than 100 µM, the TGI (HOP-18 NSCLC) was greater than 100 µM and the TGI (LXFL 529 NSCLC) was greater than 100 µM. The TGI (KM20L2 colon) was greater than 100 µM, the TGI (SNB-78 CNS) was greater than 100 µM and the TGI (DMS 273 small cell lung) was greater than 100 µM. The TGI (XF 498 CNS) was greater than 100 µM.
Work on `C/C=C/C=C\C(=O)C1c2cccc(O)c2C(=O)c2c(O)cc(C)cc21` (stereo not drawn) yielded a TGI (HOP-18 NSCLC) of 3.32 µM, a TGI (KM20L2 colon) of 3.94 µM and a TGI (DMS 273 small cell lung) of 3.06 µM. The TGI (XF 498 CNS) was 0.57 µM and the TGI (M19-MEL melanoma) was 2.16 µM.
`C[CH2][Sn]([Cl])([CH2]C)[CH2]C` gave a GI50 (LXFL 529 NSCLC) of 469 nM, a TGI (LXFL 529 NSCLC) of 3.27 µM and a GI50 (KM20L2 colon) of 524 nM. It also gave a TGI (KM20L2 colon) of 2.99 µM, a GI50 (SNB-78 CNS) of 922 nM and a TGI (SNB-78 CNS) of 5.04 µM. The GI50 (XF 498 CNS) was 867 nM, the TGI (XF 498 CNS) was 3.26 µM and the GI50 (M19-MEL melanoma) was 2.06 µM. For the same compound, the TGI (M19-MEL melanoma) was 11.4 µM.
Work on `COc1ccc(CCN2COc3ccc4ccc(=O)oc4c3C2)cc1OC` yielded a TGI (MDA-N) greater than 100 µM.
For `CNC(=O)OCc1cc2ccncc2c2c1[nH]c1ccccc12`, the TGI (HOP-18 NSCLC) was greater than 100 µM, the TGI (LXFL 529 NSCLC) was greater than 100 µM and the TGI (KM20L2 colon) was greater than 100 µM. The TGI (SNB-78 CNS) was greater than 100 µM, the TGI (DMS 273 small cell lung) was greater than 100 µM and the TGI (XF 498 CNS) was 97.9 µM. For the same compound, the TGI (M19-MEL melanoma) was greater than 100 µM.
For `CN1CCN(CCCN2c3ccccc3Sc3ccc(C(F)(F)F)cc32)CC1`, the TGI (HOP-18 NSCLC) was 21.5 µM, the TGI (LXFL 529 NSCLC) was 23 µM and the TGI (MDA-N) was 12.5 µM and 12.3 µM. It also gave a TGI (KM20L2 colon) of 5.22 µM, a TGI (SNB-78 CNS) of 32.1 µM and a TGI (DMS 273 small cell lung) of 19.8 µM. For the same compound, the TGI (M19-MEL melanoma) was 3.75 µM.
`CCOC(=O)NN(C(=O)OCC)C(C(=O)c1ccc(Cl)cc1)=C1NCCN1` was tested, and the TGI (HOP-18 NSCLC) was greater than 100 µM, the TGI (LXFL 529 NSCLC) was greater than 100 µM and the TGI (KM20L2 colon) was greater than 100 µM. It also gave a TGI (SNB-78 CNS) greater than 100 µM, a TGI (DMS 273 small cell lung) greater than 100 µM and a TGI (XF 498 CNS) greater than 100 µM. It also gave a TGI (M19-MEL melanoma) greater than 100 µM.
`O=C(NCc1cccs1)OC1CC2CCC1C2` (stereo not drawn) gave a TGI (MDA-N) greater than 100 µM.
Work on `C=C(CN(C)C)C(=O)c1ccc(OC)cc1` yielded a TGI (HOP-18 NSCLC) of 9.35 µM, a TGI (LXFL 529 NSCLC) of 3.31 µM and a TGI (MDA-N) of 22.5 µM. It also gave a TGI (KM20L2 colon) of 13.7 µM, a TGI (SNB-78 CNS) of 7.83 µM and a TGI (DMS 273 small cell lung) of 11.6 µM. For the same compound, the TGI (XF 498 CNS) was 5.1 µM and the TGI (M19-MEL melanoma) was 7.52 µM.
Compound `O=[N+]([O-])c1ccc(NN=C2c3ccccc3Cc3ccccc32)c([N+](=O)[O-])c1` has a TGI (MDA-N) of 7.75 µM.
Work on `[O]=[W](=[O])([OH])[OH]` yielded a GI50 (MDA-N) greater than 100 µM and a TGI (MDA-N) greater than 100 µM.
